This is an account of results in PubChem BioAssay (NCI).

Test systems include CAKI-1 renal; CCRF-CEM leukemia; HS 578T breast; KM12 colon; OVCAR-4 ovarian; OVCAR-8 ovarian; PC-3 prostate; SN12C renal; SW-620 colon; SK-MEL-5 melanoma.
Holding throughout (test): growth of human tumour cells (NCI), 48 h

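Five compound concentrations were applied to cells in 96-well plates for 48 hours; endpoints were derived by simple linear interpolation of the resulting dose-response curve. At the GI50, growth is halved. TGI is the concentration that stops growth completely.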 Bounds are passed on as bounds.

Turning to `Cc1ccc(-c2nc(N3CCNCC3)c3oc(-c4ccccc4)nc3n2)cc1`, the GI50 was 1.73 µM in the test with CAKI-1 renal; 2.16 µM in the test on CCRF-CEM leukemia; 2.53 µM in the test with HS 578T breast; 1.85 µM in the test with KM12 colon; 1.89 µM in the test on OVCAR-4 ovarian; 1.95 µM in the test with OVCAR-8 ovarian. Moreover, the values for the GI50 in the test with PC-3 prostate, in the test on SN12C renal and in the test on SW-620 colon were 1.7 µM, 1.8 µM and 2.06 µM, respectively. Also, the TGI stood at 3.26 µM in the test on CAKI-1 renal; 4.79 µM with CCRF-CEM leukemia; 7.69 µM in the test with HS 578T breast; 3.51 µM with KM12 colon; 4.06 µM with OVCAR-4 ovarian; 4.15 µM in the test with OVCAR-8 ovarian. Besides, the TGI with PC-3 prostate was 3.19 µM; in the test with SN12C renal, 3.3 µM; in the test on SW-620 colon, 3.88 µM.
With `COc1ccc(S(=O)(=O)N[C@H](C(=O)O)c2ccccc2)cc1`, the TGI with CAKI-1 renal, with CCRF-CEM leukemia, in the test with KM12 colon, in the test on OVCAR-4 ovarian, with OVCAR-8 ovarian and in the test with SK-MEL-5 melanoma was more than 100 µM in each case. In addition, the TGI in the test with SN12C renal and in the test on SW-620 colon was more than 100 µM throughout.
Consider `c1ccc(-c2n(Cc3ccc4ccccc4c3)cc[n+]2Cc2ccc3ccccc3c2)cc1`, for which the GI50 was 1.56 µM in the test on CCRF-CEM leukemia; 1.61 µM with HS 578T breast; 1.22 µM in the test on PC-3 prostate; 0.481 µM with SK-MEL-5 melanoma; 1.26 µM in the test with SN12C renal; 1.08 µM in the test on SW-620 colon. Besides, the TGI came out at 4.06 µM in the test on CCRF-CEM leukemia; 4.08 µM in the test with HS 578T breast; 2.68 µM with PC-3 prostate; 1.69 µM in the test with SK-MEL-5 melanoma; 2.64 µM in the test with SN12C renal; 2.48 µM in the test on SW-620 colon.
Take `COc1cccc2nc3ccccc3nc12`: the TGI with CAKI-1 renal is more than 100 µM; in the test with CCRF-CEM leukemia it was more than 100 µM; with HS 578T breast, more than 100 µM; with KM12 colon it was more than 100 µM; in the test on OVCAR-8 ovarian, 69.1 µM; with PC-3 prostate it was more than 100 µM. The TGI in the test on SK-MEL-5 melanoma, in the test on SN12C renal and in the test with SW-620 colon was more than 100 µM throughout.
Turning to `C/C(=N\n1c(O)c(C#N)cc(C#N)c1=O)c1ccncc1`, the GI50 with CAKI-1 renal, in the test on CCRF-CEM leukemia, in the test on HS 578T breast, in the test with KM12 colon, in the test with OVCAR-8 ovarian and in the test on PC-3 prostate was more than 100 µM each time. Moreover, the GI50 in the test with SK-MEL-5 melanoma, in the test with SN12C renal and in the test with SW-620 colon was more than 100 µM each time. The TGI in the test on CAKI-1 renal, in the test with CCRF-CEM leukemia, in the test with HS 578T breast, with KM12 colon, in the test on OVCAR-8 ovarian and in the test on PC-3 prostate was more than 100 µM throughout. Besides, the TGI in the test on SK-MEL-5 melanoma, in the test with SN12C renal and in the test on SW-620 colon was more than 100 µM each time.
Regarding `O=C(N/C(=C\c1ccccc1Cl)c1nc2ccccc2[nH]1)c1ccccc1`, the TGI in the test with CAKI-1 renal is more than 100 µM; in the test with CCRF-CEM leukemia it was more than 100 µM; with KM12 colon it was more than 100 µM; with OVCAR-4 ovarian it was more than 100 µM; in the test with OVCAR-8 ovarian it was more than 100 µM; in the test on SK-MEL-5 melanoma, 34.2 µM. Moreover, the TGI with SN12C renal was 61.5 µM; in the test on SW-620 colon, more than 100 µM.
`COC(=O)C1C(=O)O[C@@H](c2ccc(OC)c(OC)c2OC)C1C(=O)OC` (mixture of isomers): the TGI in the test with CAKI-1 renal, with CCRF-CEM leukemia, in the test with KM12 colon, in the test on OVCAR-4 ovarian, in the test on OVCAR-8 ovarian and in the test with SK-MEL-5 melanoma was more than 100 µM throughout. For the same compound, the TGI in the test with SN12C renal and in the test with SW-620 colon was more than 100 µM each time.
Regarding `Cc1ccc(-c2nc3cc(Cl)c(Cl)cc3nc2C#N)cc1`, the GI50 in the test on CAKI-1 renal, in the test on CCRF-CEM leukemia, in the test on KM12 colon, with OVCAR-4 ovarian, with OVCAR-8 ovarian and in the test on PC-3 prostate was more than 100 µM each time. Moreover, the GI50 in the test with SK-MEL-5 melanoma, in the test on SN12C renal and with SW-620 colon was more than 100 µM throughout. Besides, the TGI in the test on CAKI-1 renal, in the test with CCRF-CEM leukemia, in the test on KM12 colon, with OVCAR-4 ovarian, in the test on OVCAR-8 ovarian and in the test on PC-3 prostate was more than 100 µM in each case. Moreover, the TGI in the test on SK-MEL-5 melanoma, with SN12C renal and in the test with SW-620 colon was more than 100 µM throughout.
On to `CN(C)C(=O)NC(=S)N(C)C`, for which the TGI in the test with CAKI-1 renal, with CCRF-CEM leukemia, in the test on KM12 colon, in the test with OVCAR-4 ovarian, in the test with OVCAR-8 ovarian and in the test on SK-MEL-5 melanoma was more than 100 µM throughout. For the same compound, the TGI in the test on SN12C renal and in the test on SW-620 colon was more than 100 µM each time.
In the case of `CCCCCCCCCCCCCCCCc1c(C(=O)OC)nc(NN)[nH]c1=O`, the TGI in the test on CAKI-1 renal, with CCRF-CEM leukemia, with KM12 colon, with OVCAR-4 ovarian, in the test with OVCAR-8 ovarian and with SK-MEL-5 melanoma was more than 50 µM in each case. In addition, the TGI in the test with SN12C renal and in the test on SW-620 colon was more than 50 µM each time.
With `Cc1nc(N)c(-c2ccccc2)s1`, the TGI in the test on CAKI-1 renal is more than 100 µM; with CCRF-CEM leukemia, more than 73.9 µM; in the test on KM12 colon, more than 100 µM; in the test on OVCAR-4 ovarian it was more than 100 µM; in the test with OVCAR-8 ovarian it was more than 100 µM; in the test with SK-MEL-5 melanoma, more than 100 µM. Also, the TGI is more than 100 µM in the test on SN12C renal and more than 45.6 µM in the test with SW-620 colon.
As to `O=C(O)c1c(Cl)c(Cl)c(Cl)c(Cl)c1C(=O)Nc1ccc2cn[nH]c2c1`, the TGI in the test with CAKI-1 renal, in the test on HS 578T breast, in the test on KM12 colon, with OVCAR-4 ovarian, in the test on OVCAR-8 ovarian and with PC-3 prostate was more than 100 µM each time. The TGI in the test with SK-MEL-5 melanoma, in the test with SN12C renal and in the test on SW-620 colon was more than 100 µM in each case.
In the case of `COc1ccc(-c2ccccc2)c2[nH]c3c(c12)CCNC3=O`, the TGI with CAKI-1 renal, in the test on CCRF-CEM leukemia, in the test on KM12 colon, with OVCAR-4 ovarian, with OVCAR-8 ovarian and in the test on SK-MEL-5 melanoma was more than 100 µM throughout. Besides, the TGI in the test on SN12C renal and in the test on SW-620 colon was more than 100 µM each time.
